What was measured:
LYNa = target: T1, LYNa (Homo sapiens, UniProt P07948); experiment: Off-chip Mobility Shift Assay, kinase inhibition; type: biochemical; settings: recombinant LYNa; for inhibition at 0.001 µM: at 1 nM; for inhibition at 0.01 µM: at 10 nM, read-out: inhibition
T1 construct: purchased Carna Biosciences, Inc

ABL = target: T2, ABL (Homo sapiens, UniProt P00519); experiment: Off-chip Mobility Shift Assay, kinase inhibition; type: biochemical; settings: recombinant ABL; for inhibition at 0.001 µM: at 1 nM; for inhibition at 0.01 µM: at 10 nM
T2 construct: purchased Carna Biosciences, Inc
T2 sequence (P00519 whole entry): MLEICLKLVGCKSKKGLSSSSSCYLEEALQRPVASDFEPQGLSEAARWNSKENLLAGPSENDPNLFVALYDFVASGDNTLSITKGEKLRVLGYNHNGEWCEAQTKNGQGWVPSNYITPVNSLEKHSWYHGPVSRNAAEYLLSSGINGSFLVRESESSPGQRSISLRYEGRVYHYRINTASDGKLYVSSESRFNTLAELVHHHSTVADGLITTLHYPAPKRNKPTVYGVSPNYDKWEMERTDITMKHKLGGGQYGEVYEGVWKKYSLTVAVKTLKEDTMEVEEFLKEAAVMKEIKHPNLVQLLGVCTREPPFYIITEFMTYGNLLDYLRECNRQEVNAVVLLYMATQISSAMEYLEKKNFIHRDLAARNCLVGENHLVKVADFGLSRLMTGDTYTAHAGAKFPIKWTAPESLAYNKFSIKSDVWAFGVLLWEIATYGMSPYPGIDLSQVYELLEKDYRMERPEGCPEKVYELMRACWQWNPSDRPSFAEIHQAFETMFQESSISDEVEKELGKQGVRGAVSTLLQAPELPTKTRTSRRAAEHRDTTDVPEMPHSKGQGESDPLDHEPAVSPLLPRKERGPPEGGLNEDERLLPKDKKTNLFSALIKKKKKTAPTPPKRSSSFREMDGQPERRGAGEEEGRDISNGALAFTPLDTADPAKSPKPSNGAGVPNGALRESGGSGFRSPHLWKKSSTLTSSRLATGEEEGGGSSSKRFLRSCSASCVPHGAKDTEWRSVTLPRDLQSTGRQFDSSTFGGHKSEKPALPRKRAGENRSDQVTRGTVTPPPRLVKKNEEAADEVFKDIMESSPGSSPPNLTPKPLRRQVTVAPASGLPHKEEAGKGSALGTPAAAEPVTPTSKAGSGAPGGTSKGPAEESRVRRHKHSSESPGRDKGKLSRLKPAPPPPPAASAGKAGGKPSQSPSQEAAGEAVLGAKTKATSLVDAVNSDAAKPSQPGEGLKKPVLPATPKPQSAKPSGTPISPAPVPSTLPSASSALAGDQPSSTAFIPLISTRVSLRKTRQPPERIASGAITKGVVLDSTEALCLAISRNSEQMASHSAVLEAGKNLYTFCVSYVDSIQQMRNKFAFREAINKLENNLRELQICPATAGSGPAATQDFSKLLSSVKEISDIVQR

[1] = system: battery of selected protein kinases; experiment: In vitro screen of a battery of selected protein kinases (summary statement); type: biochemical; settings: BTK, BMX, ABL, ABL(E255K), SRC, ACK, ARG, BLK, DDR2, EPHA, FGR, FMS, FRK, FYN, HCK, LCK, LYN, PDGFRα, PDGFRβ, YES, PIK3CA/PIK3R1, among others
TEC = target: T3, TEC (Homo sapiens, UniProt P42680); experiment: Off-chip Mobility Shift Assay, kinase inhibition; type: biochemical; settings: at 1 nM; recombinant TEC
T3 construct: purchased Carna Biosciences, Inc
T3 sequence (P42680 1-631): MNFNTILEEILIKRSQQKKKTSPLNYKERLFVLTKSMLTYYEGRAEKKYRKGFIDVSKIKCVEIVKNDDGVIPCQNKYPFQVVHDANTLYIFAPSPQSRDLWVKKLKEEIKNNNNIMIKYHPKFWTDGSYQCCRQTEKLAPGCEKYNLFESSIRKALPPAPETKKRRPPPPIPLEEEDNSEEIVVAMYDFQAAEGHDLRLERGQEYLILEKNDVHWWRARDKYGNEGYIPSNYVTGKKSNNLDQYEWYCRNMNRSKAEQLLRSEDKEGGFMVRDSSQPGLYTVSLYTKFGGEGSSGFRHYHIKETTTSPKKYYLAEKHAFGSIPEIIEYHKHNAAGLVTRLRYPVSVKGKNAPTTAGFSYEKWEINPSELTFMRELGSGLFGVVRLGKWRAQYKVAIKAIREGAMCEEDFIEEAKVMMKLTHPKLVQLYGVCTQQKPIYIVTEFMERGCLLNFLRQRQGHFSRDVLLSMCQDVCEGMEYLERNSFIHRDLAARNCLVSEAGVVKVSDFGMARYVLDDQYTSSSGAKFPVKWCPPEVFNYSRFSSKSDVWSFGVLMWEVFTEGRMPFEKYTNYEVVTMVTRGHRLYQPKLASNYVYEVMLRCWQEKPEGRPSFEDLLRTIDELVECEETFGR

Mino = experiment: Cell inhibition assay (PrestoBlue, 48 h); type: cell-based; settings: Homo sapiens, Mino cells, read-out: IC50, inhibition of growth
YES = target: T4, YES (Homo sapiens, UniProt P07947); experiment: Off-chip Mobility Shift Assay, kinase inhibition; type: biochemical; settings: recombinant YES; for inhibition at 0.001 µM: at 1 nM; for inhibition at 0.01 µM: at 10 nM
T4 construct: purchased Carna Biosciences, Inc
T4 sequence (P07947 whole entry): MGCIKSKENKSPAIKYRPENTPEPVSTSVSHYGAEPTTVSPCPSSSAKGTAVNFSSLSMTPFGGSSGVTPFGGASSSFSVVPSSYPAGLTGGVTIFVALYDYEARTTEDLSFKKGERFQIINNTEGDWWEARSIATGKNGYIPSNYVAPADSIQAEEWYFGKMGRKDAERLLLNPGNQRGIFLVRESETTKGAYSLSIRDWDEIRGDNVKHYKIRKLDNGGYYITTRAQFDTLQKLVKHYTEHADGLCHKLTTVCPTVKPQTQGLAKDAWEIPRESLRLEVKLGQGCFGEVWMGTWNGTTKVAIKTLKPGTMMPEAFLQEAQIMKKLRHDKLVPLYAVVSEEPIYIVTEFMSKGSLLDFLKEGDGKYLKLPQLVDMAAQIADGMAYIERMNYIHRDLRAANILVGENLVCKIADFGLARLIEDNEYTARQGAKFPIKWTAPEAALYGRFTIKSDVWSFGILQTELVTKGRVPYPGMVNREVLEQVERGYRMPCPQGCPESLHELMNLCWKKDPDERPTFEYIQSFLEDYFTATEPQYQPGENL

BLK = target: T5, BLK (Homo sapiens, UniProt P51451); experiment: Off-chip Mobility Shift Assay, kinase inhibition; type: biochemical; settings: at 10 nM; recombinant BLK
T5 construct: purchased Carna Biosciences, Inc
T5 sequence (P51451 whole entry): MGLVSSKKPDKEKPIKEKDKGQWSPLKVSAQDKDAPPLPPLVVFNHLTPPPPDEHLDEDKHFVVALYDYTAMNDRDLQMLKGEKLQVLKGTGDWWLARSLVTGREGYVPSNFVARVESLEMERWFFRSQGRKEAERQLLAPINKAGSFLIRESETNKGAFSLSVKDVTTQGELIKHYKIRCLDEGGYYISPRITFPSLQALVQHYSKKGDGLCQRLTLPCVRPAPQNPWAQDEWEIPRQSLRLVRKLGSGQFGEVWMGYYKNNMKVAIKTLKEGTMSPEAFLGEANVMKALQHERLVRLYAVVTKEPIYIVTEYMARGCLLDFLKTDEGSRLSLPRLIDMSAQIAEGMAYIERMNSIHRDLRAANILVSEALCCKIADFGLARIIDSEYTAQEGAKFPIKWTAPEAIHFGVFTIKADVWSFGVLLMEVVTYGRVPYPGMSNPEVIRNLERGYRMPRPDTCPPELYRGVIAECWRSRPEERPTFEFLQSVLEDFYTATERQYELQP

PDGFRα = target: T6, PDGFRα (Homo sapiens, UniProt P16234); experiment: Off-chip Mobility Shift Assay, kinase inhibition; type: biochemical; settings: at 10 nM; recombinant PDGFRα; read-out: inhibition
T6 construct: purchased Carna Biosciences, Inc
T6 sequence (P16234 24-1089): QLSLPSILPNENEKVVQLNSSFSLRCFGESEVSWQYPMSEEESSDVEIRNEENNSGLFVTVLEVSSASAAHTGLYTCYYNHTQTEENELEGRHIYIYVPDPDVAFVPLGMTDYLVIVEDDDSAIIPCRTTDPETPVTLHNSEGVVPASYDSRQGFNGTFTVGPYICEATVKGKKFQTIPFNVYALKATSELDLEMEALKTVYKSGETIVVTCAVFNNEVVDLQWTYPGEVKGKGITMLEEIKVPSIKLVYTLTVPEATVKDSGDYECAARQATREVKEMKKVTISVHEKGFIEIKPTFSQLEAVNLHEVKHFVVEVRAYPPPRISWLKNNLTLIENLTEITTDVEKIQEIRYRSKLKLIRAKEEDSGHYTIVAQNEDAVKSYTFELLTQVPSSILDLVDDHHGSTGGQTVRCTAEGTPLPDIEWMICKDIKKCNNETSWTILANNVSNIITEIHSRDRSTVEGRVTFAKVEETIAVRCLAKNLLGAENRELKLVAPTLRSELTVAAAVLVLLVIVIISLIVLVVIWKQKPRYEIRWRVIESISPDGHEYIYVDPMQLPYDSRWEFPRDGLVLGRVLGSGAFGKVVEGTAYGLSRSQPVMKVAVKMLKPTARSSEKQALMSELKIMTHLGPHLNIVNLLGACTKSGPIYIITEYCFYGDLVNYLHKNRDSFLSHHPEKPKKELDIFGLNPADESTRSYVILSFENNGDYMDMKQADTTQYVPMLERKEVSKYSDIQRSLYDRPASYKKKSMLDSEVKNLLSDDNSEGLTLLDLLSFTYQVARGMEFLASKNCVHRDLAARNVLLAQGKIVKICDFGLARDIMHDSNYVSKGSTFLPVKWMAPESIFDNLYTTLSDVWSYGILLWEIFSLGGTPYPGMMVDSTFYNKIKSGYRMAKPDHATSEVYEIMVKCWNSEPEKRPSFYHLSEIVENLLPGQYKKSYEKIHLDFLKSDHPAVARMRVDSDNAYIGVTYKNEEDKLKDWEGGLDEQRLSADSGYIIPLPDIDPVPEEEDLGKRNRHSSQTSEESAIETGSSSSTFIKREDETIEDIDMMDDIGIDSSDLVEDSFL

BMX = target: T7, BMX (Homo sapiens, UniProt P51813); experiment: Off-chip Mobility Shift Assay, kinase inhibition; type: biochemical; settings: recombinant BMX; for inhibition at 0.001 µM: at 1 nM; for inhibition at 0.01 µM: at 10 nM
T7 construct: purchased Carna Biosciences, Inc
T7 sequence (P51813 1-675): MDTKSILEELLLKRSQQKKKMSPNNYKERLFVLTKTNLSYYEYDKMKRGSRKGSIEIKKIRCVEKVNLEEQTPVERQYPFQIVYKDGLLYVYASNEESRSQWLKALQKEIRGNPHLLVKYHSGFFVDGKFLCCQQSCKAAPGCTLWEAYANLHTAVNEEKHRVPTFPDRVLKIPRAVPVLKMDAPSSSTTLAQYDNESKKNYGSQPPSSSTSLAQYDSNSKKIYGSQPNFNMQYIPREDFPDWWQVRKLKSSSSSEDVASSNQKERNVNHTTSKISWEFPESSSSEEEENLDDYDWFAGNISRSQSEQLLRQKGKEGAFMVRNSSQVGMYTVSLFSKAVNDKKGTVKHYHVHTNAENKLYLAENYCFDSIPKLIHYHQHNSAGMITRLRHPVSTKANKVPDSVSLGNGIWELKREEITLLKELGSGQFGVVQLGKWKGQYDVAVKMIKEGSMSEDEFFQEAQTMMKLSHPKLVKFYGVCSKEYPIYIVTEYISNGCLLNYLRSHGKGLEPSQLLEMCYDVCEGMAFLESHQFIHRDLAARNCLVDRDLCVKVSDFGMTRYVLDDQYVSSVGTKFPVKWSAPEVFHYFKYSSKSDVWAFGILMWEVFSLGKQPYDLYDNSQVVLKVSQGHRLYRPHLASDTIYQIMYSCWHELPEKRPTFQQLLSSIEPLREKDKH

ACK = target: T8, ACK (Homo sapiens, UniProt Q07912); experiment: Off-chip Mobility Shift Assay, kinase inhibition; type: biochemical; settings: at 10 nM; recombinant ACK
T8 construct: purchased Carna Biosciences, Inc
T8 sequence (Q07912 whole entry): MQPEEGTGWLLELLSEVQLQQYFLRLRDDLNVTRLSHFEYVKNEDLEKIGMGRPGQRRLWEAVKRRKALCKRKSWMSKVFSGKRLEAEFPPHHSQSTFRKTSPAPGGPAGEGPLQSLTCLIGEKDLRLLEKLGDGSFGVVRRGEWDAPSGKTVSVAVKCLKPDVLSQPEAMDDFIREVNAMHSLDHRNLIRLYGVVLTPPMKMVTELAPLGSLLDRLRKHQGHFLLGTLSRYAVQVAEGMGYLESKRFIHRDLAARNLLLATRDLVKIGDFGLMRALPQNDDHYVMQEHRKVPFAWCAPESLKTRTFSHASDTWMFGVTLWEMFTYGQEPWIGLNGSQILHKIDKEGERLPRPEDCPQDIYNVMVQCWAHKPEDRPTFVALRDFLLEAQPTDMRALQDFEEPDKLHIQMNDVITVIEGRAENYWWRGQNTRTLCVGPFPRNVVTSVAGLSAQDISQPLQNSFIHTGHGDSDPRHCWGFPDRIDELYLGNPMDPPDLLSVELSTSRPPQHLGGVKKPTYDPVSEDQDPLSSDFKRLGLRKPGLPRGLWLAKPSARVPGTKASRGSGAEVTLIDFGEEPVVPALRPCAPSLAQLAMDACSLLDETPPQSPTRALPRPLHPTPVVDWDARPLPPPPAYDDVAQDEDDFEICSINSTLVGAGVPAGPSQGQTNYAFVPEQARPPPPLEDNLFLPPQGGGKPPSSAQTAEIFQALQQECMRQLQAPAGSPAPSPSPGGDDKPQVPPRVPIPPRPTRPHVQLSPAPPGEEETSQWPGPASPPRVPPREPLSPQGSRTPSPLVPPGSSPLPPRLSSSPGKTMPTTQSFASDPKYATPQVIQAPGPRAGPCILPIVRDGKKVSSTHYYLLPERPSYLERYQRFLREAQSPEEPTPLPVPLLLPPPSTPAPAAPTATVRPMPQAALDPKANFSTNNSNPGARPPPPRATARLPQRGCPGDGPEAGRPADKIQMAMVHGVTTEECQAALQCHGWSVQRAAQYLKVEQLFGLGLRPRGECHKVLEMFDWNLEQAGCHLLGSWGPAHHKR

[2] = Metabolic stability in human liver microsomes; type: in vitro ADME; settings: for metabolic stability compared to dasatinib: human liver microsomes
Description: FIG. 1. Metabolic stability of compounds in human liver microsomal incubations. […] Concentrations at specified times were determined by LC-MS/MS.
The incubation reactions at various time points were quenched by adding 2× volumes of acetonitrile containing 100 nM reserpine. The quenched incubation samples were centrifuged at 4000 RPM for 10 min, and the supernatants injected for LC/MS/MS analysis. LC/MS/MS analysis was carried out on a AB Sciex 4000 Q Trap LC/MS/MS system coupled with Shimadzu Prominence UFLCXR 20 series (including a CBM-20A controller, two LC-20ADXR solvent delivery units, SIL-20AC HT autosampler, CTO-20A column oven, and a SPD-20A UV detector).

T1 sequence (P07948 whole entry): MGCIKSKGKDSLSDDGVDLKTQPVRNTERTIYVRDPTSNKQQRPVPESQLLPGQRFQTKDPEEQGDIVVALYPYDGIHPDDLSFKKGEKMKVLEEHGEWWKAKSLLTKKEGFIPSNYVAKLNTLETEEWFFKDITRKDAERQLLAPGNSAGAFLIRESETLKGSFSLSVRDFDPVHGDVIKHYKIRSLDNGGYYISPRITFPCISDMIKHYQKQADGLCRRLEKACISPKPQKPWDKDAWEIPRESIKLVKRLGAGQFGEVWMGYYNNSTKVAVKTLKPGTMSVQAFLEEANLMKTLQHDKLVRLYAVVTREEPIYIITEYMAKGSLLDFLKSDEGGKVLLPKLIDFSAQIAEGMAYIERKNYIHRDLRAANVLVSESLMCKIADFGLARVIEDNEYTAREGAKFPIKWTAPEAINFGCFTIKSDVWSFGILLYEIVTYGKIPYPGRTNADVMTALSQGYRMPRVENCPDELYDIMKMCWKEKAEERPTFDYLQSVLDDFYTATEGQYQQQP

SMILES | inhibition at 0.001 µM (LYNa) | inhibition at 0.01 µM (LYNa) | inhibition at 0.001 µM (ABL) | inhibition at 0.01 µM (ABL) | activity to inhibit kinases [1] | inhibition at 0.001 µM (TEC) | IC50 (Mino) | inhibition at 0.001 µM (YES) | inhibition at 0.01 µM (YES) | inhibition at 0.01 µM (BLK) | inhibition at 0.01 µM (PDGFRα) | inhibition at 0.001 µM (BMX) | inhibition at 0.01 µM (BMX) | inhibition at 0.01 µM (ACK) | In vitro t1/2 ([2]; 1 μM, human liver microsomes 0.5 mg/mL, NADPH and UDPGA, 37° C.) | metabolic stability compared to dasatinib [2]
Cc1nc(Nc2ncc(C(=O)Nc3c(C)cccc3Cl)s2)cc(N2CCC(O)CC2)n1 [Compound IX, N-(2-chloro-6-methylphenyl)-2-[[2-methyl-6-(4-hydroxypiperidin-1-yl)pyrimidin-4-yl]amino]thiazole-5-carboxamide] | > 50% | > 50% | > 50% | > 50% | potent activity | > 50% | < 50 nM | > 50% | > 50% | > 50% | > 50% | > 50% | > 50% | > 50% | – | –
[2H]c1cc(C)c(NC(=O)c2cnc(Nc3cc(N4CC[C@@H](O)C4)nc(C)n3)s2)c(Cl)c1 [Compound V, N-(2-chloro-4-deutero-6-methylphenyl)-2-[[2-methyl-6-((R)-3-hydroxypyrrolidin-1-yl)pyrimidin-4-yl]amino]thiazole-5-carboxamide] | > 50% | > 50% | > 50% | > 50% | potent activity | > 50% | < 50 nM | > 50% | > 50% | > 50% | > 50% | > 50% | > 50% | > 50% | 1.12 h | significantly greater stability
[2H]c1cc(C)c(NC(=O)c2cnc(Nc3cc(N4CC[C@H](N)C4)nc(C)n3)s2)c(Cl)c1 [Compound VI, N-(2-chloro-4-dutero-6-methylphenyl)-2-[[2-methyl-6-((S)-3-aminopyrrolidin-1-yl)pyrimidin-4-yl]amino]thiazole-5-carboxamide] | > 50% | > 50% | > 50% | > 50% | potent activity | > 50% | < 50 nM | > 50% | > 50% | > 50% | > 50% | > 50% | > 50% | > 50% | – | significantly greater stability
[2H]c1cc(C)c(NC(=O)c2cnc(Nc3cc(N4CC[C@@H](N)C4)nc(C)n3)s2)c(Cl)c1 [Compound VII, N-(2-chloro-4-deutero-6-methylphenyl)-2-[[2-methyl-6-((R)-3-aminopyrrolidin-1-yl)pyrimidin-4-yl]amino]thiazole-5-carboxamide] | > 50% | > 50% | > 50% | > 50% | potent activity | > 50% | < 50 nM | > 50% | > 50% | > 50% | > 50% | > 50% | > 50% | > 50% | – | significantly greater stability

— US10479786B2, “Protein kinase inhibitors” (Princeton Drug Discovery Inc, priority 2016, dated 2019)
